Data: patent US9000162B2, “5,8-difluoro-4-(2-(4-(heteroaryloxy)-phenyl)ethylamino)quinazolines and their use as agrochemicals” (Dow AgroSciences LLC, priority 2008, dated 2015)
Values after ≈ are worked out from the molar mass of the structure shown.

What was measured:
Format in all cases: in vivo
[1] = test system: Pseudoperonospora cubensis (PSPECU); test: Cucumber downy mildew foliar protectant test; details: 200 ppm foliar, inoculated one day after treatment, read-out: Activity against fungal diseases PSPECU
Outline: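 Cucumber seedlings, first true leaf 20-80% expanded, were sprayed to wetness with formulated compound and inoculated next day with aqueous sporangia suspension. Severity was converted to percent control versus untreated inoculated plants: ***=80-100%, **=50-79%, *=0-49%.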

[2] = test system: Puccinia recondita tritici (PUCCRT); test: Leaf rust of wheat foliar protectant test; details: 200 ppm foliar, inoculated one day after treatment, read-out: Activity against fungal diseases PUCCRT
Outline: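 Wheat seedlings (3–8 per pot) were sprayed to wet with formulated compound and inoculated the next day with an aqueous Puccinia recondita tritici spore suspension. Severity was converted to % control versus untreated inoculated plants and rated *** 80–100%, ** 50–79%, * 0–49%.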

[3] = test system: Magnaporthe grisea = Pyricularia oryzae (PYRIOR); test: whole plant or invertebrate; details: foliar, read-out: Activity against fungal diseases PYRIOR
[4] = test system: Septoria tritici (SEPTTR); test: Septoria blotch of wheat foliar protectant test; details: Zymoseptoria tritici, read-out: Activity against fungal diseases SEPTTR; for pest or weed control at 200 ppm: 200 ppm foliar, inoculated one day after treatment; for pest or weed control at 25 ppm: foliar, Tested at 25 ppm (footnote b)
Outline: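 Wheat seedlings (3-10 per pot) were sprayed to wet with formulated compound and inoculated next day with Septoria tritici spores. Plants then had 1 day in a dark dew chamber and 3 days in a lighted one before greenhouse incubation. Severity versus untreated inoculated plants gave percent control, scored *** 80-100%, ** 50-79%, * 0-49%.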

[5] = test system: Colorado Potato Beetle (Leptinotarsa decemlineata, LPTNDE); test: Colorado Potato Beetle larvae on sprayed tomato leaves; details: foliar, 72 h, L2 larvae on sprayed tomato foliage, mortality after three days
Procedure: Formulated test compounds were diluted and sprayed onto leaves of tomato plants. When dry, plant foliage was removed from the plant and placed in 8-well agar trays. Five L2 Colorado potato beetle larvae were placed in each well, and the trays were sealed and incubated at 26° C. Mortality was evaluated after three days.

Structure (SMILES)	pest or weed control at 200 ppm [1] [%]	pest or weed control at 200 ppm [2] [%]	pest or weed control at 200 ppm [3] [%]	pest or weed control at 200 ppm [4] [%]	LC90 [5] [µg/mL]	pest or weed control at 25 ppm [4] [%]
Fc1ccc(F)c2c(NCCc3ccc(Oc4ccc(C(F)(F)F)cn4)cc3)ncnc12 [Compound 1]	80 to 100	80 to 100	80 to 100	80 to 100	0.49 (≈ 1.1 µM)	–
N#Cc1ccc(Oc2ccc(CCNc3ncnc4c(F)cccc34)cc2)nc1 [reference compound]	–	–	–	–	< 3.1	–
Fc1cccc2c(NCCc3ccc(Oc4cc(C(F)(F)F)ccn4)cc3)ncnc12 [drawing 199, reference compound]	–	–	–	–	3.1 to 12.5 (≈ 7.24 to 29.2 µM)	–
Fc1cccc2c(NCCc3ccc(Oc4ccc(C(F)(F)F)cn4)cc3)ncnc12 [reference compound]	–	–	–	–	0.12 (≈ 0.28 µM)	–
Fc1cc(Oc2cc(C(F)(F)F)ncn2)ccc1CCNc1ncnc2c(F)ccc(F)c12 [Compound 116]	80 to 100	80 to 100	80 to 100	–	–	80 to 100
Cc1cc(CCNc2ncnc3c(F)ccc(F)c23)ccc1Oc1nc(F)c(F)c(N)c1F [Compound 99]	80 to 100	80 to 100	80 to 100	0 to 49	–	–
Fc1ccc(F)c2c(NCCc3ccccc3)ncnc12 [Compound 94]	80 to 100	80 to 100	0 to 49	50 to 79	–	–
COc1ccc(CCNc2ncnc3c(F)cc(F)c(F)c23)cc1Cl [Compound 86]	80 to 100	0 to 49	0 to 49	0 to 49	–	–
Cc1cc(CCNc2ncnc3c(F)cc(F)c(F)c23)ccc1Oc1cc(C(F)(F)F)cc[n+]1[O-] [Compound 81]	80 to 100	80 to 100	80 to 100	80 to 100	–	–
Fc1cnc(C(F)(F)F)c(F)c1Oc1ccc(CCNc2ncnc3c(F)ccc(F)c23)cc1 [Compound 48]	80 to 100	80 to 100	80 to 100	80 to 100	–	–
Fc1ccc(F)c2c(NCCc3ccc(Oc4ccnc(C(F)(F)F)c4Cl)cc3)ncnc12 [Compound 96]	80 to 100	80 to 100	80 to 100	80 to 100	–	–
COc1cc(CCNc2ncnc3c(F)ccc(F)c23)ccc1Oc1ccnc(C(F)(F)F)n1 [Compound 113]	80 to 100	80 to 100	80 to 100	–	–	80 to 100
Oc1ccc(CCNc2ncnc3c(F)ccc(F)c23)cc1 [Compound 4]	50 to 79	50 to 79	0 to 49	0 to 49	–	–
Fc1ccc(F)c2c(NCCc3ccc(Oc4c(Cl)cnc(C(F)(F)F)c4Cl)cc3)ncnc12 [Compound 95]	80 to 100	80 to 100	80 to 100	80 to 100	–	–
COc1cc(CCNc2ncnc3c(F)ccc(F)c23)ccc1Oc1nc(C(F)(F)F)nc(F)c1F [Compound 101]	80 to 100	50 to 79	0 to 49	0 to 49	–	–
COc1cc(CCNc2ncnc3c(F)ccc(F)c23)ccc1Oc1c(F)cnc(C(F)(F)F)c1F [Compound 50]	80 to 100	80 to 100	80 to 100	80 to 100	–	–
Fc1ccc(F)c2c(NCCc3cccc(Oc4cc(C(F)(F)F)ccn4)c3)ncnc12 [Compound 40]	80 to 100	80 to 100	80 to 100	–	–	50 to 79
COC(=O)c1cnc(Oc2ccc(CCNc3ncnc4c(F)ccc(F)c34)cc2)cc1C(F)(F)F [Compound 28]	80 to 100	80 to 100	80 to 100	–	–	80 to 100
COc1cc(C(F)(F)F)cc(Oc2ccc(CCNc3ncnc4c(F)ccc(F)c34)cc2)n1 [Compound 9]	80 to 100	80 to 100	80 to 100	50 to 79	–	–
